Consider 19 compounds from ChEMBL document CHEMBL1123199, “Synthesis and structure-activity relationships of naftifine-related allylamine antimycotics” (1986).

Converted amounts (≈) assume the structure as drawn.

The test system of assay [1] is Aspergillus fumigatus. The assay is described as follows: Antifungal activity measured against Aspergillus fumigatus. It is filed as functional.
The subject of assay [2] is Candida parapsilosis. The assay is described as follows: Antifungal activity against Candida parapsilosis. The following applies: Lodderomyces parapsilosis. In kind it is functional.
Assay [3] has as its system Epidermophyton floccosum. As to the kind of experiment: Antifungal activity against Epidermophyton floccosum. In kind it is functional.
For assay [4], the system named is Cavia porcellus. The assay is described as follows: In vivo antifungal activity by topical treatment of guinea pig dermatophytosis caused by Trichophyton mentagrophytes at a dose of 0.1%. It is filed as functional.
In assay [5] the test system is Cavia porcellus. As to the kind of experiment: In vivo antifungal activity by topical treatment of guinea pig dermatophytosis caused by Trichophyton mentagrophytes at a dose of 0.5%. In kind it is functional.
The test system of assay [6] is Cavia porcellus. As to the kind of experiment: In vivo antifungal activity by topical treatment of guinea pig dermatophytosis caused by Trichophyton mentagrophytes at a dose of 2%. In kind it is functional.
In assay [7] the test system is Microsporum canis. The assay is described as follows: Antifungal activity against Microsporum canis. It is filed as functional.
Assay [8] relates to Sporothrix schenckii. The assay is described as follows: Antifungal activity measured against Sporothrix schenck ii. In kind it is functional.
The subject of assay [9] is Trichophyton benhamiae. The assay is described as follows: Antifungal activity measured against Trichophyton mentagrophytes. In kind it is functional, Arthroderma benhamiae.

As to `CN(C/C=C/C1=CCCC1)Cc1cccc2ccccc12`, the MIC (as a rule, the least concentration at which growth counts as inhibited) turned out to be 50 µg/mL (≈ 180 µM) in assay [1]; 6.2 µg/mL (≈ 22.3 µM) in assay [2]; 0.2 µg/mL (≈ 0.721 µM) in [3]; 0.2 µg/mL (≈ 0.721 µM) in assay [7]; 3.1 µg/mL (≈ 11.2 µM) in assay [8]; 0.1 µg/mL (≈ 0.36 µM) in [9]. Besides, the values for the Activity in [4], in assay [5] and in assay [6] were 30%, 91% and 100%, respectively.

For `CCOC(=O)/C=C/CN(C)Cc1cccc2ccccc12`, the MIC in assay [1] is above 100 µg/mL; in assay [2], above 100 µg/mL; in [3], 3.1 µg/mL (≈ 10.9 µM); in [7], 6.25 µg/mL (≈ 22.1 µM); in [8] it was 12.5 µg/mL (≈ 44.1 µM); in [9] it was below 1.6 µg/mL. The Activity worked out at 0% in assay [4], 0% in assay [5] and 16% in assay [6].

For `CN(C/C=C/c1ccccc1)Cc1c2ccccc2cc2ccccc12`, the MIC in assay [1] came to 100 µg/mL (≈ 296 µM); in assay [2], 100 µg/mL (≈ 296 µM); in assay [3] it was 0.4 µg/mL (≈ 1.19 µM); in assay [7], 0.8 µg/mL (≈ 2.37 µM); in [8] it was 50 µg/mL (≈ 148 µM); in assay [9] it was 0.8 µg/mL (≈ 2.37 µM). Further, the Activity turned out to be 0% in [4], 0% in assay [5] and 38% in assay [6].

For the compound `CCN(C/C=C/c1ccccc1)Cc1cccc2ccccc12`, the MIC in assay [1] was 100 µg/mL (≈ 332 µM); in [2], 12.5 µg/mL (≈ 41.5 µM); in assay [3], below 1.6 µg/mL; in assay [7], below 1.6 µg/mL; in assay [8], 12.5 µg/mL (≈ 41.5 µM); in [9], below 1.6 µg/mL. Besides, the figures for the Activity in [4], in assay [5] and in [6] were 19%, 25% and 81%, respectively.

On to `CN(C/C=C/c1ccccc1)C(=O)c1cccc2ccccc12`, for which the minimal inhibitory concentration (MIC) was 12.5 µg/mL (≈ 41.5 µM) in [1]; above 100 µg/mL in [2]; at most 1.6 µg/mL in assay [3]; at most 1.6 µg/mL in assay [7]; 25 µg/mL (≈ 82.9 µM) in assay [8]; at most 1.6 µg/mL in assay [9]. Besides, the figures for the Activity in [4], in assay [5] and in assay [6] were 0%, 0% and 60%, respectively.

On to `CN(C/C=C/c1ccccn1)Cc1cccc2ccccc12`, for which the minimum inhibitory concentration (MIC) in assay [1] is above 100 µg/mL; in [2], above 100 µg/mL; in assay [3], 12.5 µg/mL (≈ 43.3 µM); in assay [7] it was 12.5 µg/mL (≈ 43.3 µM); in [8] it was 100 µg/mL (≈ 347 µM); in [9], below 1.6 µg/mL. The Activity came out at 0% in [4], 0% in assay [5] and 7% in [6].

Regarding `CN(C/C=C/c1ccccc1)CC1=CCOc2ccccc21`, the MIC in [1] was found to be 50 µg/mL (≈ 172 µM); in assay [2], 6.2 µg/mL (≈ 21.3 µM); in assay [3] it was 0.4 µg/mL (≈ 1.37 µM); in assay [7] it was 0.4 µg/mL (≈ 1.37 µM); in assay [8] it was 6.2 µg/mL (≈ 21.3 µM); in assay [9] it was 0.2 µg/mL (≈ 0.686 µM). For the same compound, the Activity in assay [6] amounted to 82%.

As for `CN(C/C=C/c1ccc(F)cc1)Cc1cccc2ccccc12`, the MIC in [1] was found to be 25 µg/mL (≈ 81.9 µM); in [2], 3.1 µg/mL (≈ 10.2 µM); in assay [3], 0.1 µg/mL (≈ 0.327 µM); in assay [7], 0.2 µg/mL (≈ 0.655 µM); in assay [8], 1.6 µg/mL (≈ 5.24 µM); in assay [9], 0.1 µg/mL (≈ 0.327 µM). Also, the Activity was found to be 21% in assay [4], 82% in assay [5] and 100% in assay [6].

Turning to `Cc1ccc(/C=C/CN(C)Cc2cccc3ccccc23)cc1`, the MIC in assay [1] is above 100 µg/mL; in [2] it was 50 µg/mL (≈ 166 µM); in assay [3], below 1.6 µg/mL; in assay [7], below 1.6 µg/mL; in assay [8], 12.5 µg/mL (≈ 41.5 µM); in assay [9], below 1.6 µg/mL. For the same compound, the Activity in assay [4] was 7%; in [5], 22%; in [6] it was 50%.

With `CN(C/C=C/c1ccccc1)Cc1ccnc2ccccc12`, the MIC in assay [1] was above 100 µg/mL; in [2], 2.5 µg/mL (≈ 8.67 µM); in assay [3], 1.6 µg/mL (≈ 5.55 µM); in assay [7], 1.6 µg/mL (≈ 5.55 µM); in assay [8] it was 12.5 µg/mL (≈ 43.3 µM); in [9], 1.6 µg/mL (≈ 5.55 µM). The Activity came to 0% in [4], 0% in assay [5] and 3% in assay [6].

For `CN(C/C=C/c1ccccc1)Cc1cccc2c1CCCC2`, the minimum inhibitory concentration (MIC) in [1] was above 100 µg/mL; in [2], 50 µg/mL (≈ 172 µM); in [3], 0.8 µg/mL (≈ 2.75 µM); in assay [7], 0.8 µg/mL (≈ 2.75 µM); in assay [8] it was 3.1 µg/mL (≈ 10.6 µM); in assay [9], 0.4 µg/mL (≈ 1.37 µM). The Activity turned out to be 0% in [4], 22% in [5] and 50% in [6].

As for `CN(C/C=C/c1cccs1)Cc1cccc2ccccc12`, the minimal inhibitory concentration (MIC) is 100 µg/mL (≈ 341 µM) in [1]; 6.2 µg/mL (≈ 21.1 µM) in [2]; 0.2 µg/mL (≈ 0.682 µM) in [3]; 0.2 µg/mL (≈ 0.682 µM) in assay [7]; 3.1 µg/mL (≈ 10.6 µM) in assay [8]; 0.1 µg/mL (≈ 0.341 µM) in assay [9]. In addition, the Activity in assay [4] is 13%; in assay [5], 56%; in assay [6], 96%.

In the case of `CN(C/C=C/c1ccc(Cl)cc1)Cc1cccc2ccccc12`, the MIC in [1] is above 100 µg/mL; in assay [2], 100 µg/mL (≈ 311 µM); in [3] it was 0.4 µg/mL (≈ 1.24 µM); in assay [7], 0.4 µg/mL (≈ 1.24 µM); in assay [8] it was 3.1 µg/mL (≈ 9.63 µM); in [9], 0.2 µg/mL (≈ 0.621 µM). Also, the results for the Activity in assay [4], in assay [5] and in assay [6] were 0%, 25% and 44%, respectively.

Turning to `CN(C/C=C/C1=CCCCC1)Cc1cccc2ccccc12`, the MIC in assay [1] is 12.5 µg/mL (≈ 42.9 µM); in [2], 0.8 µg/mL (≈ 2.75 µM); in assay [3], 0.1 µg/mL (≈ 0.343 µM); in assay [7], 0.1 µg/mL (≈ 0.343 µM); in assay [8], 0.8 µg/mL (≈ 2.75 µM); in [9], 0.05 µg/mL (≈ 0.172 µM). The Activity in assay [4] was found to be 41%; in [5], 97%; in assay [6], 100%.

`CN(C/C=C/c1ccccc1)Cc1csc2ccccc12`: the MIC amounted to 25 µg/mL (≈ 85.2 µM) in assay [1]; 3.1 µg/mL (≈ 10.6 µM) in [2]; 0.2 µg/mL (≈ 0.682 µM) in [3]; 0.2 µg/mL (≈ 0.682 µM) in assay [7]; 1.6 µg/mL (≈ 5.45 µM) in [8]; 0.1 µg/mL (≈ 0.341 µM) in assay [9]. The Activity in [4] was found to be 0%; in [5] it was 54%; in [6], 97%.

As to `C(=C\c1ccccc1)/CN(Cc1cccc2ccccc12)C1CCCCC1`, the MIC in [1], in assay [2], in assay [3], in assay [7], in assay [8] and in assay [9] was above 100 µg/mL in each case.

`C(=C\c1ccccc1)/CN(Cc1cccc2ccccc12)c1ccccc1`: the MIC in assay [1] is above 100 µg/mL; in assay [2] it was above 100 µg/mL; in assay [3] it was above 100 µg/mL; in [7] it was above 100 µg/mL; in assay [8], 50 µg/mL (≈ 143 µM); in assay [9] it was above 100 µg/mL.

Regarding `C/C(=C\c1ccccc1)CN(C)Cc1cccc2ccccc12`, the MIC in assay [1] was above 100 µg/mL; in assay [2], above 100 µg/mL; in assay [3], 100 µg/mL (≈ 332 µM); in assay [7] it was 100 µg/mL (≈ 332 µM); in assay [8] it was 100 µg/mL (≈ 332 µM); in [9], 12.5 µg/mL (≈ 41.5 µM).

On to `CN(C/C=C/c1ccccc1)Cc1cccc2sccc12`, for which the minimum inhibitory concentration (MIC) was determined as 12.5 µg/mL (≈ 42.6 µM) in [1]; 1.6 µg/mL (≈ 5.45 µM) in [2]; 0.1 µg/mL (≈ 0.341 µM) in assay [3]; 0.1 µg/mL (≈ 0.341 µM) in assay [7]; 1.6 µg/mL (≈ 5.45 µM) in [8]; 0.1 µg/mL (≈ 0.341 µM) in assay [9]. Moreover, the values for the Activity in assay [5] and in assay [6] were 75% and 100%, respectively.
